Assay results: patent publication US6391575B1, “Methods for detecting membrane derived caspase activity and modulators thereof” (IDUN Pharmaceuticals, Inc., priority 1999, dated 2002)

Experiments:
[1] = system: membrane-associated procaspase-3 (697-neo and 697-Bcl-2 heavy membranes); assay: Effect of exogenous cytochrome c on heavy membrane caspase activity; assay type: biochemical, human; settings: 10 μg/ml bovine cytochrome c during fractionation; 1 μg/ml cytochrome c plus dATP, 40 min at 30° C.; FIG. 6A
Description: (§1) Frozen cell pellets containing ≈10^9 cells were thawed and resuspended in cold hypotonic buffer (10 mM Na-HEPES, 5 mM MgCl2, 42 mM KCl, pH 7.4) supplemented with 1 mM PMSF, 1 μg/ml leupeptin, 1 μg/ml pepstatin A, 5 μg/ml aprotinin, 0.1 mM EDTA, 0.1 mM EGTA and 5 mM DTT (Sigma) to a density of ≈1.5×10^8 cells/ml. The samples were incubated on ice for 30 min at which time the cells were lysed using 30-40 strokes with a Dounce homogenizer. The sample was centrifuged twice for 10 min at 500×g, 4° C. to separate the nuclei. The nuclear pellets were then washed twice in the same buffer supplemented with 1.6M sucrose, yielding the nuclear fraction. The supernatant was then centrifuged at 14,000×g for 30 min at 4° C. to pellet the heavy membranes. […] Protein concentrations were measured using Protein Assay Kit II from BioRad with bovine serum albumin as the calibration standard. […]
(§2) Heavy membrane samples were diluted to 1 mg/ml in hypotonic buffer or in 0.25 M sucrose, 10 mM MOPS, 2 mM EDTA, pH 7.4 (Mancini, et al., 1998) containing 5 mM DTT with or without 1% NP-40. […] To examine the time course of spontaneous activation of caspase activity from membranes, 50 μl of heavy membrane slurry containing 50-100 μg total protein was mixed with 200 μl hypotonic buffer containing 25 μM DEVD-amc substrate and 6 mM DTT in 96 well Cytofluor plates and fluorescence was measured over time. […]

[2] = system: caspase-3 in cytoplasmic fractions (697-neo and 697-Bcl-2 cells); assay: Effect of exogenous cytochrome c on cytoplasmic fraction caspase activity; assay type: biochemical, human; settings: cytochrome c during fractionation and assay; neo and Bcl-2 cells; FIG. 6B
Description: as §1, §2

[3] = target: T1, membrane-derived caspases (Homo sapiens, UniProt P42574); assay: Kinetics of DEVD-amc hydrolysis by membrane-derived caspases; assay type: biochemical; settings: substrate concentration varied 1-100 μM
T1 construct: endogenous in cells
T1 sequence (P42574 29-175 limits assumed): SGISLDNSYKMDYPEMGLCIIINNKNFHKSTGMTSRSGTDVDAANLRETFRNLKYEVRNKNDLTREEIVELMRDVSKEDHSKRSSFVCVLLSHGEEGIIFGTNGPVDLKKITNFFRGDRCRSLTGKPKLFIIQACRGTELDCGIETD
T1 sequence (P42574 176-277 limits assumed): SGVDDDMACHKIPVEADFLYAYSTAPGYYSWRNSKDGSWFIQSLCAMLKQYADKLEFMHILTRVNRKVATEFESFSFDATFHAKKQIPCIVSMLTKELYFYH
Description: Caspase activity was measured by mixing 50 μl of an enzyme-containing fraction and 200 μl of 25 μM DEVD-amc (Asp-Glu-Val-Asp-aminomethylcoumarin) substrate in ICE buffer (20 mM HEPES, 1 mM EDTA, 0.1% CHAPS, 10% sucrose, 5 mM DTT, pH 7.5) in duplicate Cytoplate wells. Product formation was monitored by the increase in fluorescence (ex=360 nm, em=460 nm) over 1-2 hours at 30 ° C. using the CytoFluor 4000 plate reader (Perseptive Biosystems, Framingham, Mass.). For kinetic studies, the substrate concentration was varied in the range 1-100 μM. For inhibition studies the enzyme was pretreated with 150 μl inhibitor for 30 min at room temperature prior to the addition of 50 μl of 50 μM substrate solution. Inhibitor IC50 values were determined using the equation: […]
The membrane-derived caspase activities were further characterized by measuring the inhibition of DEVD-amc cleavage by several peptide aldehyde inhibitors (Table I). […] The observed IC50 values for the membrane associated caspases are very similar to those for purified fully-processed recombinant human caspase-3. […] N-terminal microsequence analysis of activated, affinity purified heavy membrane caspase confirms that this enzyme is indeed human caspase-3.

Row | Substance | Effect on membrane-derived caspase activity (DEVD-amc cleavage) [1] | Effect on DEVD-amc cleavage activity of cytoplasmic fractions [2] | Km [3]
1 | cytochrome c: bovine cytochrome c (Sigma) | no effect | strongly activated | –
2 | Acetyl-Asp-Glu-Val-Asp-aminomethylcoumarin [DEVD-amc] | – | – | 10 µM
